Results from US20210045385A1, “PYRIDAZINONE-SUBSTITUTED KETOXIMES AS HERBICIDES” (FMC Corporation, priority 2018, published 2021).

What was measured:
Assay type in all cases: in vivo
[1] = tested on: Italian ryegrass (Lolium multiflorum); assay: Test A preemergence, visual plant response rating; conditions: 500 g ai/ha Preemergence; approx. 10 days
Procedure, shortened: (§1)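 Greenhouse evaluation, approx. 10 days post-spray. Soil: loam + sand. Postemergence stage: 1–2 leaves, height 2–10 cm. Vehicle: non-phytotoxic solvent blend with surfactant. Score: visual injury on a 0 (no effect) to 100 (complete control) scale.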

kochia (Kochia scoparia) [2] = assay: Test A preemergence, visual plant response rating; conditions: 500 g ai/ha Preemergence; approx. 10 days
Procedure, shortened: as §1

[3] = tested on: ragweed (common ragweed, Ambrosia elatior); assay: Test A preemergence, visual plant response rating; conditions: 500 g ai/ha Preemergence; approx. 10 days
Procedure, shortened: as §1

[4] = tested on: barnyardgrass (Echinochloa crus-galli); assay: Test A preemergence, visual plant response rating; conditions: 500 g ai/ha Preemergence; approx. 10 days
Procedure, shortened: as §1

[5] = tested on: pigweed (Amaranthus retroflexus); assay: Test A preemergence, visual plant response rating; conditions: 500 g ai/ha Preemergence; approx. 10 days
Procedure, shortened: as §1

[6] = tested on: foxtail, green (green foxtail, Setaria viridis); assay: Test A preemergence, visual plant response rating; conditions: 500 g ai/ha Preemergence; approx. 10 days
Procedure, shortened: as §1

[7] = tested on: Italian ryegrass (Lolium multiflorum); assay: Test A postemergence, visual plant response rating; conditions: 500 g ai/ha, postemergence; 0 is no effect, 100 is complete control
Procedure, shortened: as §1

kochia (Kochia scoparia) [8] = assay: Test A postemergence, visual plant response rating; conditions: 500 g ai/ha, postemergence; 0 is no effect, 100 is complete control
Procedure, shortened: as §1

[9] = tested on: ragweed (common ragweed, Ambrosia elatior); assay: Test A postemergence, visual plant response rating; conditions: 500 g ai/ha, postemergence; 0 is no effect, 100 is complete control
Procedure, shortened: as §1

[10] = tested on: wheat (Triticum aestivum); assay: Test A postemergence, visual plant response rating; conditions: 500 g ai/ha, postemergence; 0 is no effect, 100 is complete control
Procedure, shortened: as §1

[11] = tested on: blackgrass (Alopecurus myosuroides); assay: Test A postemergence, visual plant response rating; conditions: 500 g ai/ha, postemergence; 0 is no effect, 100 is complete control
Procedure, shortened: as §1

corn (Zea mays) [12] = assay: Test A postemergence, visual plant response rating; conditions: 500 g ai/ha, postemergence; 0 is no effect, 100 is complete control
Procedure, shortened: as §1

[13] = tested on: barnyardgrass (Echinochloa crus-galli); assay: Test A postemergence, visual plant response rating; conditions: 500 g ai/ha, postemergence; 0 is no effect, 100 is complete control
Procedure, shortened: as §1

[14] = tested on: pigweed (Amaranthus retroflexus); assay: Test A postemergence, visual plant response rating; conditions: 500 g ai/ha, postemergence; 0 is no effect, 100 is complete control
Procedure, shortened: as §1

[15] = tested on: foxtail, green (green foxtail, Setaria viridis); assay: Test A postemergence, visual plant response rating; conditions: 500 g ai/ha, postemergence; 0 is no effect, 100 is complete control
Procedure, shortened: as §1

[16] = tested on: galium (catchweed bedstraw, Galium aparine); assay: Test A postemergence, visual plant response rating; conditions: 500 g ai/ha, postemergence; 0 is no effect, 100 is complete control
Procedure, shortened: as §1

[17] = tested on: barnyardgrass (Echinochloa crus-galli); assay: Test D flooded paddy test, visual plant response rating; conditions: 250 g ai/ha, scale 0 to 100 (0 no effect, 100 complete control), 13 to 15 d
Procedure, shortened: (§2)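 Plants were grown to the 2-leaf stage, pots flooded to 3 cm above soil, and compound applied directly into the paddy water, with the depth held throughout. After 13 to 15 d in a greenhouse, response was rated visually against untreated controls on a 0–100 scale (0 no effect, 100 complete control).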

[18] = tested on: duck salad (Heteranthera limosa); assay: as above; conditions: 250 g ai/ha, scale 0 to 100 (0 no effect, 100 complete control), 13 to 15 d
Procedure, shortened: as §2

rice (Oryza sativa) = assay: as above; conditions: 250 g ai/ha, scale 0 to 100 (0 no effect, 100 complete control), 13 to 15 d
Procedure, shortened: as §2

[19] = tested on: sedge umbrella (small-flower umbrella sedge, Cyperus difformis); assay: as above; conditions: 250 g ai/ha, scale 0 to 100 (0 no effect, 100 complete control), 13 to 15 d
Procedure, shortened: as §2

[20] = tested on: barnyardgrass (Echinochloa crus-galli); assay: Test C preemergence, visual plant response rating; conditions: Test C, 0 is no effect, 100 is complete control
Procedure, shortened: (§3)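 Compounds in a non-phytotoxic solvent with surfactant were applied as a directed soil spray preemergence or to 2–10 cm, one- to two-leaf plants postemergence, in loam–sand soil. After about 10 d in a greenhouse, injury was visually rated against untreated controls on a 0–100 scale (100 = complete control).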

[21] = tested on: foxtail, giant (giant foxtail, Setaria faberi); assay: Test C preemergence, visual plant response rating; conditions: Test C, 0 is no effect, 100 is complete control
Procedure, shortened: as §3

[22] = tested on: pigweed (Amaranthus retroflexus); assay: Test C preemergence, visual plant response rating; conditions: Test C, 0 is no effect, 100 is complete control
Procedure, shortened: as §3

[23] = tested on: ragweed (common ragweed, Ambrosia artemisiifolia); assay: Test C preemergence, visual plant response rating; conditions: Test C, 0 is no effect, 100 is complete control
Procedure, shortened: as §3

kochia (Bassia scoparia) [24] = assay: Test C preemergence, visual plant response rating; conditions: Test C, 0 is no effect, 100 is complete control
Procedure, shortened: as §3

[25] = tested on: Italian ryegrass (Lolium mutiflorum); assay: Test C preemergence, visual plant response rating; conditions: Test C, 0 is no effect, 100 is complete control
Procedure, shortened: as §3

[26] = tested on: wheat (Triticum aestivum); assay: Test C postemergence, visual plant response rating
Procedure, shortened: as §3

[27] = tested on: blackgrass (Alopecurus myosuroides); assay: Test C postemergence, visual plant response rating
Procedure, shortened: as §3

corn (Zea mays) [28] = assay: Test C postemergence, visual plant response rating
Procedure, shortened: as §3

[29] = tested on: barnyardgrass (Echinochloa crus-galli); assay: Test C postemergence, visual plant response rating
Procedure, shortened: as §3

[30] = tested on: foxtail, giant (giant foxtail, Setaria faberi); assay: Test C postemergence, visual plant response rating
Procedure, shortened: as §3

[31] = tested on: pigweed (Amaranthus retroflexus); assay: Test C postemergence, visual plant response rating
Procedure, shortened: as §3

[32] = tested on: ragweed (common ragweed, Ambrosia artemisiifolia); assay: Test C postemergence, visual plant response rating
Procedure, shortened: as §3

kochia (Bassia scoparia) [33] = assay: Test C postemergence, visual plant response rating
Procedure, shortened: as §3

[34] = tested on: galium (catchweed bedstraw, Galium aparine); assay: Test C postemergence, visual plant response rating
Procedure, shortened: as §3

[35] = tested on: Italian ryegrass (Lolium mutiflorum); assay: Test C postemergence, visual plant response rating
Procedure, shortened: as §3

[36] = Test C, postemergence, 125 g ai/ha

CO/N=C(\c1cccc(C)c1)c1c(O)c(C2CC2)nn(C)c1=O [Compound 27]
40: Ragweed plant response rating (0 to 100 scale) [9]
0: Kochia plant response rating (0 to 100 scale) (kochia (Kochia scoparia) [2]) | Pigweed plant response rating (0 to 100 scale) [5] | Foxtail, Green plant response rating (0 to 100 scale) [6] | Kochia plant response rating (0 to 100 scale) (kochia (Kochia scoparia) [8]) | Corn plant response rating (0 to 100 scale) (corn (Zea mays) [12]) | Barnyardgrass plant response rating (0 to 100 scale) [13] | Foxtail, Green plant response rating (0 to 100 scale) [15]
10: Ryegrass, Italian plant response rating (0 to 100 scale) [1] | Ragweed plant response rating (0 to 100 scale) [3] | Barnyardgrass plant response rating (0 to 100 scale) [4] | Blackgrass plant response rating (0 to 100 scale) [11]
30: Pigweed plant response rating (0 to 100 scale) [14]
20: Ryegrass, Italian plant response rating (0 to 100 scale) [7] | Wheat plant response rating (0 to 100 scale) [10]
80: Galium plant response rating (0 to 100 scale) [16]

C#CCO/N=C(\c1cccc(Br)c1)c1c(O)c(C)nn(C)c1=O [Compound 278]
20: Barnyardgrass plant response rating (0 to 100 scale) ([20]; 125 g ai/ha) | Ryegrass, Italian plant response rating (0 to 100 scale) ([25]; 31 g ai/ha) | Corn plant response rating (0 to 100 scale) (corn (Zea mays) [28]; [36])
40: Ragweed plant response rating (0 to 100 scale) ([23]; 125 g ai/ha) | Wheat plant response rating (0 to 100 scale) ([26]; Postemergence, 31 g ai/ha) | Barnyardgrass plant response rating (0 to 100 scale) ([29]; Postemergence, 31 g ai/ha) | Kochia plant response rating (0 to 100 scale) (kochia (Bassia scoparia) [33]; Postemergence, 31 g ai/ha)
60: Foxtail, Giant plant response rating (0 to 100 scale) ([21]; 125 g ai/ha) | Ragweed plant response rating (0 to 100 scale) ([32]; Postemergence, 31 g ai/ha)
10: Ragweed plant response rating (0 to 100 scale) ([23]; 31 g ai/ha)
90: Blackgrass plant response rating (0 to 100 scale) [27, 36] | Galium plant response rating (0 to 100 scale) [34, 36]
50: Blackgrass plant response rating (0 to 100 scale) ([27]; Postemergence, 31 g ai/ha) | Barnyardgrass plant response rating (0 to 100 scale) [29, 36]
100: Ryegrass, Italian plant response rating (0 to 100 scale) ([25]; 125 g ai/ha)
30: Foxtail, Giant plant response rating (0 to 100 scale) ([21]; 31 g ai/ha) | Foxtail, Giant plant response rating (0 to 100 scale) ([30]; Postemergence, 31 g ai/ha) | Pigweed plant response rating (0 to 100 scale) ([31]; Postemergence, 31 g ai/ha)
70: Kochia plant response rating (0 to 100 scale) (kochia (Bassia scoparia) [24]; 125 g ai/ha) | Foxtail, Giant plant response rating (0 to 100 scale) [30, 36] | Pigweed plant response rating (0 to 100 scale) [31, 36] | Ryegrass, Italian plant response rating (0 to 100 scale) ([35]; Postemergence, 31 g ai/ha)
80: Wheat plant response rating (0 to 100 scale) [26, 36] | Ragweed plant response rating (0 to 100 scale) [32, 36] | Kochia plant response rating (0 to 100 scale) (kochia (Bassia scoparia) [33]; [36]) | Galium plant response rating (0 to 100 scale) ([34]; Postemergence, 31 g ai/ha) | Ryegrass, Italian plant response rating (0 to 100 scale) [35, 36]
0: Plant response rating, Barnyardgrass (Flood) [17] | Plant response rating, Ducksalad (Flood) [18] | Plant response rating, Rice (Flood) (rice (Oryza sativa)) | Plant response rating, Sedge, Umbrella (Flood) [19] | Barnyardgrass plant response rating (0 to 100 scale) ([20]; 31 g ai/ha) | Pigweed plant response rating (0 to 100 scale) ([22]; 31 g ai/ha) | Pigweed plant response rating (0 to 100 scale) ([22]; 125 g ai/ha) | Kochia plant response rating (0 to 100 scale) (kochia (Bassia scoparia) [24]; 31 g ai/ha) | Corn plant response rating (0 to 100 scale) (corn (Zea mays) [28]; Postemergence, 31 g ai/ha)

C#CCON=C(c1cccc(OC)c1)c1c(O)c(C)nn(C)c1=O [Compound 203]
0: Plant response rating, Barnyardgrass (Flood) [17] | Plant response rating, Ducksalad (Flood) [18] | Plant response rating, Rice (Flood) (rice (Oryza sativa)) | Plant response rating, Sedge, Umbrella (Flood) [19] | Barnyardgrass plant response rating (0 to 100 scale) ([20]; 31 g ai/ha) | Barnyardgrass plant response rating (0 to 100 scale) ([20]; 125 g ai/ha) | Foxtail, Giant plant response rating (0 to 100 scale) ([21]; 31 g ai/ha) | Pigweed plant response rating (0 to 100 scale) ([22]; 31 g ai/ha) | Pigweed plant response rating (0 to 100 scale) ([22]; 125 g ai/ha) | Ragweed plant response rating (0 to 100 scale) ([23]; 31 g ai/ha) | Ragweed plant response rating (0 to 100 scale) ([23]; 125 g ai/ha) | Kochia plant response rating (0 to 100 scale) (kochia (Bassia scoparia) [24]; 31 g ai/ha) | Kochia plant response rating (0 to 100 scale) (kochia (Bassia scoparia) [24]; 125 g ai/ha) | Ryegrass, Italian plant response rating (0 to 100 scale) ([25]; 31 g ai/ha) | Ryegrass, Italian plant response rating (0 to 100 scale) ([25]; 125 g ai/ha) | Wheat plant response rating (0 to 100 scale) ([26]; Postemergence, 31 g ai/ha) | Wheat plant response rating (0 to 100 scale) [26, 36] | Blackgrass plant response rating (0 to 100 scale) ([27]; Postemergence, 31 g ai/ha) | Blackgrass plant response rating (0 to 100 scale) [27, 36] | Corn plant response rating (0 to 100 scale) (corn (Zea mays) [28]; Postemergence, 31 g ai/ha) | Corn plant response rating (0 to 100 scale) (corn (Zea mays) [28]; [36]) | Barnyardgrass plant response rating (0 to 100 scale) ([29]; Postemergence, 31 g ai/ha) | Foxtail, Giant plant response rating (0 to 100 scale) ([30]; Postemergence, 31 g ai/ha) | Ragweed plant response rating (0 to 100 scale) ([32]; Postemergence, 31 g ai/ha)
20: Barnyardgrass plant response rating (0 to 100 scale) [29, 36] | Pigweed plant response rating (0 to 100 scale) [31, 36] | Kochia plant response rating (0 to 100 scale) (kochia (Bassia scoparia) [33]; Postemergence, 31 g ai/ha)
50: Kochia plant response rating (0 to 100 scale) (kochia (Bassia scoparia) [33]; [36])
10: Foxtail, Giant plant response rating (0 to 100 scale) ([21]; 125 g ai/ha) | Pigweed plant response rating (0 to 100 scale) ([31]; Postemergence, 31 g ai/ha) | Ragweed plant response rating (0 to 100 scale) [32, 36]
30: Foxtail, Giant plant response rating (0 to 100 scale) [30, 36] | Galium plant response rating (0 to 100 scale) ([34]; Postemergence, 31 g ai/ha) | Galium plant response rating (0 to 100 scale) [34, 36] | Ryegrass, Italian plant response rating (0 to 100 scale) ([35]; Postemergence, 31 g ai/ha) | Ryegrass, Italian plant response rating (0 to 100 scale) [35, 36]
